Tests used:
[1] = target: Mycobacterium tuberculosis Rv0183 (monoglyceride lipase) (Mycobacterium tuberculosis, UniProt O07427); type: biochemical
[2] = target: Mycobacterium tuberculosis LipY (triacylglycerol lipase) (Mycobacterium tuberculosis, UniProt I6Y2J4); type: biochemical
Fusarium solani Cutinase = Fusarium solani Cutinase (Fusarium vanettenii, UniProt P00590); type: biochemical, Fusarium solani pisi
LipY = target: T1, LipY (Mycobacterium tuberculosis, UniProt I6Y2J4); type: binding
T1 sequence (I6Y2J4 1-437): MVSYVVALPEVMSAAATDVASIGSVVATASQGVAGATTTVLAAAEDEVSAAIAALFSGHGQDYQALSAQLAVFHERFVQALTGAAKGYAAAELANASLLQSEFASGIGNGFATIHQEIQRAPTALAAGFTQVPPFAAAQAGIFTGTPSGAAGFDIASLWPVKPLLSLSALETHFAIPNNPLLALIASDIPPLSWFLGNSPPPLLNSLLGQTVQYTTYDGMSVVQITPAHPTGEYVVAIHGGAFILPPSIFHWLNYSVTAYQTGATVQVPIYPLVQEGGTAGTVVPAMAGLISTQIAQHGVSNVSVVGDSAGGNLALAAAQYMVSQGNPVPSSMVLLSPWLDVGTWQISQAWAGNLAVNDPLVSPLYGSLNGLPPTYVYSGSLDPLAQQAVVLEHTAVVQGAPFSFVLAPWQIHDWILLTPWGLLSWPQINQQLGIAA

Chain of Mycobacterium tuberculosis Rv0183 (monoglyceride lipase) (O07427 whole entry, looked up): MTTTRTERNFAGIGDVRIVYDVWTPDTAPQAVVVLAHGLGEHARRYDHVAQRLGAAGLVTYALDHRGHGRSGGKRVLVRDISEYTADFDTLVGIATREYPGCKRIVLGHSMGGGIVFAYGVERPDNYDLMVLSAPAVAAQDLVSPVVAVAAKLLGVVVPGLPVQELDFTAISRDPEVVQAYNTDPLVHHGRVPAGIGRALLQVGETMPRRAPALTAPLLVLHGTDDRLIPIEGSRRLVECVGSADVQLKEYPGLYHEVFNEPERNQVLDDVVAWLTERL
Chain of Fusarium solani Cutinase (P00590 17-230): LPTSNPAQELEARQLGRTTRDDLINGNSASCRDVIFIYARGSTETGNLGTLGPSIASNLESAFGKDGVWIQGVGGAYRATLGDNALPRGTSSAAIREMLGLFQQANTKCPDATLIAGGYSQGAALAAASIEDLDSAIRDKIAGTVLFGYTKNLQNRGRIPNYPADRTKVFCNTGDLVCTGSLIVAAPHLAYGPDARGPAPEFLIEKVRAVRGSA

Compound | DI (Diastereoselectivity Index between trans-(α) and cis-(β) isomers), Rv0183 [1] [%] | DI (Diastereoselectivity Index between trans-(α) and cis-(β) isomers), LipY [2] [%] | DI (Diastereoselectivity Index between trans-(α) and cis-(β) isomers), Cutinase (Fusarium solani Cutinase) [%] | further results
CCCCCCCCCCCCCCCCC1CCP(=O)(OC)OC(C)=C1C(=O)OC (racemic) [9(β), (±) Methyl 5-hexadecyl-2-methoxy-7-methyl-2,3,4,5-tetrahydro-1,2-oxaphosphepine - 6-carboxylate 2-oxide] | > 97.0 | 70.5 | 27.2 | –
CCCCCCCCCCC1CCP(=O)(OC)OC(C)=C1C(=O)OC (racemic) [7(α), (±) Methyl 5-decyl-2-methoxy-7-methyl-2,3,4,5-tetrahydro-1,2-oxaphosphepine-6-carboxylate 2-oxide] | 51.9 | 80.3 | 76.2 | –
CCCCCC1CCP(=O)(OC)OC(C)=C1C(=O)OC (racemic) [6(β), (±) Methyl 2-methoxy-7-methyl-5-pentyl-2,3,4,5-tetrahydro-1,2-oxaphosphepine-6-carboxylate 2-oxide] | 16.7 | – | 89.7 | xI50 (inhibitor molar excess leading to 50% lipase inhibition), LipY [2]: > 100
CCCCCCCCCCCCCCCCC1CCP(=O)(OC)OC(C)=C1C(=O)OC (racemic) [9(α), (±) Methyl 5-hexadecyl-2-methoxy-7-methyl-2,3,4,5-tetrahydro-1,2-oxaphosphepine - 6-carboxylate 2-oxide] | > 97.0 | 70.5 | 27.2 | –
CO[P@]1(=O)OC[C@H]2COC(=O)C2=C(C)O1 [Compound 1, Cyclophostin] | – | – | – | xI50 (inhibitor molar excess leading to 50% lipase inhibition), LipY [2]: > 100; half-inactivation time (t1/2), Cutinase (Fusarium solani Cutinase): 0.18 min; residual lipase activity (plateau), Cutinase (Fusarium solani Cutinase): around 6.0%
CCCCCCCCCCCCCCCCCCC1CCP(=O)(OC)OC(C)=C1C(=O)OC (racemic) [10(α), (±) Methyl 2-methoxy-7-methyl-5-octadecyl-2,3,4,5-tetrahydro-1,2-oxaphosphepine-6-carboxylate 2-oxide] | > 93.0 | 81.3 | 72.1 | –
CCCCCCCCCCCCCCCCOP1(=O)CCCC(C(=O)OC)=C(C)O1 (stereo not shown) [Compound 11, Methyl 7-methyl-2-(hexadecyloxy)-2,3,4,5-tetrahydro-1,2-oxaphosphepine-6-carboxylate 2-oxide] | – | – | – | Mass modifications (inhibited minus native lipase), LipY (LipY): +443.8 Da; half-inactivation time (t1/2), LipY [2]: 0.16 min
CCCCCCCCCCCCCCCCCCC1CCP(=O)(OC)OC(C)=C1C(=O)OC (racemic) [10(β), (±) Methyl 2-methoxy-7-methyl-5-octadecyl-2,3,4,5-tetrahydro-1,2-oxaphosphepine-6-carboxylate 2-oxide] | > 93.0 | 81.3 | 72.1 | –
CCCCCC1CCP(=O)(OC)OC(C)=C1C(=O)OC (racemic) [6(α), (±) Methyl 2-methoxy-7-methyl-5-pentyl-2,3,4,5-tetrahydro-1,2-oxaphosphepine-6-carboxylate 2-oxide] | 16.7 | – | 89.7 | xI50 (inhibitor molar excess leading to 50% lipase inhibition), LipY [2]: > 100
CCCCCCCCCCC1CCP(=O)(OC)OC(C)=C1C(=O)OC (racemic) [Compound 7(β), (±) Methyl 5-decyl-2-methoxy-7-methyl-2,3,4,5-tetrahydro-1,2-oxaphosphepine-6-carboxylate 2-oxide] | 51.9 | 80.3 | 76.2 | half-inactivation time (t1/2), Rv0183 [1]: 1.44 min; residual lipase activity (plateau), Rv0183 [1]: around 6.0%
CCCCCCCCCCCCC1CCP(=O)(OC)OC(C)=C1C(=O)OC (racemic) [8(α), (±) Methyl 5-dodecyl-2-methoxy-7-methyl-2,3,4,5-tetrahydro-1,2-oxaphosphepine-6-carboxylate 2-oxide] | 36.3 | 28.0 | 29.0 | –
CCCCCCCCCCCCC1CCP(=O)(OC)OC(C)=C1C(=O)OC (racemic) [8(β), (±) Methyl 5-dodecyl-2-methoxy-7-methyl-2,3,4,5-tetrahydro-1,2-oxaphosphepine-6-carboxylate 2-oxide] | 36.3 | 28.0 | 29.0 | –

Source: paper PMC3518039 (Journal of medicinal chemistry, 2012)
